Measured values: US20250333398A1, “MONOARYL AND HETARYL SUBSTITUTED INDAZOLES AND BENZIMIDAZOLES AS STING ANTAGONISTS AND THE USE THEREOF AS MEDICAMENT” (Boehringer Ingelheim International GmbH, priority 2024, published 2025)

Assays:
human STING WT (R232) = molecular target: T1, human STING WT (R232); assay: Human STING HTRF binding assay (competitive, Cisbio 64BDSTGPEG); conditions: 6His tagged human STING WT R232, competition with STING ligand-d2
T1 construct: purchased Cisbio 64BDSTGPEG
Method: Binders to human STING WT (R232) were identified using a competitive HTRF assay format (Cisbio 64BDSTGPEG), which uses d2-labeled STING ligand, a 6His tagged human STING protein, and an anti 6His Cryptate-labeled antibody. Compounds compete with the STING ligand-d2 and thereby prevents FRET from occurring, which can be measured by an EnVision™ reader (PerkinElmer).
Assay method: Compounds were delivered as 10 mM DMSO solution, serially diluted by an Agilent Bravo Workstation and transferred to the 384 well assay plate (Perkin Elmer #6005359) using a Cybiwell dispenser. Typically, 8 concentrations were used with the highest concentration at 10 μM or 1 μM in the final assay volume followed by ^˜1:5 dilution steps. DMSO concentration was set to 1% in the final assay volume. The 384 well assay plate contained 20 test compounds and DMSO in column 23 and 24. A cGAMP standard dilution row was prepared according to the manufacturer and transferred to each assay plate. After transfer of compound solution or dilution buffer for negative (high) and positive (low) controls, 5 μl of the human STING protein (cyclic binding domain (residues 138-379) of the WT R232 human version, fused to a 6 His tag at the Nter part; 1:50 dilution in detection buffer) were dispensed to all wells except of the positive control, which received detection buffer only. Plates were the centrifuged for 20 sec at 1000 rpm. After that, 10 μl of Anti-6His-Cryptate antibody/Sting ligand-d2 mix was added to all wells using a Multidrop combi dispenser, followed by another 20 sec/1000 rpm centrifugation step. After an incubation of the plates for 180 min at room temperature, […] at […] (HTRF ratio) was measured using an Envison Reader (PerkinElmer)
Data evaluation and calculation: For data evaluation and calculation, HTRF ratios were calibrated using the cGAMP standard curve. After that, the measurement of the low control was set as 0% control and the measurement of the high control was set as 100% control. The IC50 values were calculated using the standard 4 parameter logistic regression formula. Calculation: [y=(a−d)/(1+(x/c)^b)+d], a=low value, d=high value; x=conc M; c=IC50 M; b=slope;

[1] = test system: T2, wild-type (GRR) human STING cGAMP binding domain (residues 155-341); assay: Differential Scanning Fluorimetry (DSF), stability of STING protein against thermal denaturation; conditions: 100 uM compound, 3 uM target protein
T2 construct: His-TEV-hSTING (WT); TEV protease cleavage site (N); made in house; host or cells: E. coli BL21 DE3
Method: Dye fluorescence is quenched in aqueous environment and increases upon association of the dye with the hydrophobic parts of the unfolding protein. […] The inflection point of the curve represents the “melting” temperature of the protein (Tm) which is calculated numerically using the Boltzmann equation.
Method: The thermal stability of the STING protein was measured using a specific expression construct of the cGAMP binding domain of wild-type (GRR) human STING comprising residues 155-341 and a N-terminal 8x His-tag in assay buffer containing 20 mM Tris, 150 mM NaCl at pH7.5.
The assay uses Hard-Shell®PCR Plates 384-Well CLR/WHT (Catalog #HSP3805, BIO-RAD), Microseal®‘B’ Adhesive Seals for PCR Plates (Catalog #MSB-1001, BIO-RAD) and was run on a CFX384 Real-Time System (Bio-Rad).
A DMSO stock solution of SYPRO orange (SIGMA S5692-500UL) was prepared.
Compound stock solutions (10 mM in DMSO) were diluted 1:2 in DMSO to an intermediate compound concentration of 5 mM and then further diluted 1:40 in assay buffer resulting in a compound concentration of 125 μM and 2.5% DMSO.
Fluorescent dye stock solution (5000×SYPRO Orange) was then mixed with target protein and buffer to a concentration of 15 uM Protein and 25×SYPRO Orange. 2 ul of this protein-dye-mixture was added to 8 ul compound solution. Final volume was 10 uL. 3-6 well positions were used as negative control (protein with 2% DMSO). The plates were prepared for duplicate measurement and centrifuged for 2 min at 1000 g. In the measurement, 160 cycles of 0.5° C. were used (temperature ramp 15 s/cycle, 15° C. to 95° C.).
Final Assay concentrations for compound characterization were as follows:
100 uM compound, 3 uM target protein, 5×SYPRO Orange, 2% DMSO in 10 ul. All dispensing steps were performed using a HamiltonStar pipetting robot (Hamilton).
Dissociation curves were processed in Bio-Rad CFX Manager. Peak type was set to “negative”.
Compound codes for screen were assigned in the plate layout.
Two replicates of TM measurements were averaged, and the standard deviation was calculated. In cases of SD>1.5° C. the measurement was repeated.
The melting point (Tm) obtained for STING protein alone was subtracted from T obtained for protein incubated with ligand to generate ΔTm values.
Protein production and purification: The protein used for the biophysical experiments was a recombinant human STING protein comprising its cytosolic ectodomain. A codon optimized DNA sequence (for expression in Escherichia coli) encoding amino acid residues 155 to 341 (Swiss Prot Q86WV6) of human STING (WT) was synthesized by GeneArt (Regensburg, Germany) and inserted into a pET17b E. coli expression vector. The protein construct encodes an N-terminal 8× His-tag followed by tobacco etch virus protease (TEV) cleavage site and the above STING gene sequence. The resulting protein sequence for the used STING variant is listed below:
For expression of recombinant human STING above construct was transformed into E. coli BL21 DE3 strain and grown in shake flasks in LB-medium at 37° C. Expression was induced by addition of isopropyl β-D-1-thiogalactopyranoside to a final concentration of 1 mM and cultures shaken overnight. Cell pellets were centrifuged and stored at −70° C. until further use. Protein was purified by cell thawing in lysis buffer (20 mM TRIS-HCl, pH 8, 300 mM NaCl, 2 mM mercaptoethanol, 20 mM imidazole, Complete Protease Inhibitor (Roche) and DNase (Roche)), followed by metal affinity purification using Ni-NTA resins and elution buffer consisting of 20 mM TRIS-HCl, pH 8, 300 mM NaCl, 2 mM mercaptoethanol, 300 mM imidazole and size exclusion chromatography in running buffer (20 mM TRIS-HCl, pH 8, 100 mM NaCl, 2 mM DTT). The peak fraction was collected and concentrated to 2.5 mg/mL.

Compound	IC50 (human STING WT (R232)) [nM]	DSF ΔTm (K) [1] [K]
Cn1nc(-n2cc3c(-c4nc(-c5ccc(P(C)(C)=O)cc5OC(F)(F)F)n(C)c4C4CC4)cccc3n2)cc1C(F)F [Example 2, 4-{5-cyclopropyl-2-[4-(dimethylphosphoryl)-2-(trifluoromethoxy)phenyl]-1-methyl-1H-imidazol-4-yl}-2-[5-(difluoromethyl)-1-methyl-1H-pyrazol-3-yl]-2H-indazole]	25.4	30
COc1nn(C)cc1-n1cc2c(-c3nc(-c4ccc(C(=O)N(C)C)cc4OC(F)(F)F)n(C)c3C3CC3)cccc2n1 [Example 3, 4-{5-cyclopropyl-4-[2-(3-methoxy-1-methyl-1H-pyrazol-4-yl)-2H-indazol-4-yl]-1-methyl-1H-imidazol-2-yl}-N,N-dimethyl-3-(trifluoromethoxy)benzamide]	122	26
CCOc1nn(C)cc1-n1cc2c(-c3nc(-c4ccc(C(N)=O)cc4OC(F)(F)F)n(C)c3C3CC3)cccc2n1 [Example 4, 4-{5-cyclopropyl-4-[2-(3-ethoxy-1-methyl-1H-pyrazol-4-yl)-2H-indazol-4-yl]-1-methyl-1H-imidazol-2-yl}-3-(trifluoromethoxy)benzamide]	40.9	30
COc1nn(C2CC2)cc1-n1cc2c(-c3nc(-c4ccc(C(N)=O)cc4OCC(F)F)n(C)c3C3CC3)cccc2n1 [Example 6, 4-{5-cyclopropyl-4-[2-(1-cyclopropyl-3-methoxy-1H-pyrazol-4-yl)-2H-indazol-4-yl]-1-methyl-1H-imidazol-2-yl}-3-(2,2-difluoroethoxy)benzamide]	16	28
CC[P@](C)(=O)c1ccc(-c2nc(-c3cccc4nn(-c5cc(C(F)F)n(C)n5)cc34)c(C3CC3)n2C)c(OC(F)(F)F)c1 [Example 7, 4-(5-cyclopropyl-2-{4-[(S)-ethyl(methyl)phosphoryl]-2-(trifluoromethoxy)phenyl}-1-methyl-1H-imidazol-4-yl)-2-[5-(difluoromethyl)-1-methyl-1H-pyrazol-3-yl]-2H-indazole]	19.7	30
Cn1nc(-n2cc3c(-c4nc(-c5ccc(C(N)=O)cc5OC(F)(F)F)n(C)c4C4CC4)cccc3n2)cc1C(F)(F)F [Example 8, 4-(5-cyclopropyl-1-methyl-4-{2-[1-methyl-5-(trifluoromethyl)-1H-pyrazol-3-yl]-2H-indazol-4-yl}-1H-imidazol-2-yl)-3-(trifluoromethoxy)benzamide]	85.3	32
COc1nn(C2CC2)cc1-n1cc2c(-c3nn(-c4ccc(P(C)(C)=O)cc4C)c(C)c3C(C)C)cccc2n1 [Example 9, 2-(1-cyclopropyl-3-methoxy-1H-pyrazol-4-yl)-4-{1-[4-(dimethylphosphoryl)-2-methylphenyl]-5-methyl-4-(propan-2-yl)-1H-pyrazol-3-yl}-2H-indazole]	17.6	22
CC[P@](C)(=O)c1ccc(-c2nc(-c3cccc4nn(-c5cc(C(F)(F)F)n(C)n5)cc34)c(C3CC3)n2C)c(OC(F)(F)F)c1 [Example 10, 4-(5-cyclopropyl-2-{4-[(S)-ethyl(methyl)phosphoryl]-2-(trifluoromethoxy)phenyl}-1-methyl-1H-imidazol-4-yl)-2-[1-methyl-5-(trifluoromethyl)-1H-pyrazol-3-yl]-2H-indazole]	31.9	30
COc1nn(CC(C)(C)O)cc1-n1cc2c(-c3nc(-c4ccc(C(N)=O)cc4OC(F)(F)F)n(C)c3C3CC3)cccc2n1 [Example 11, 4-(5-cyclopropyl-4-{2-[1-(2-hydroxy-2-methylpropyl)-3-methoxy-1H-pyrazol-4-yl]-2H-indazol-4-yl}-1-methyl-1H-imidazol-2-yl)-3-(trifluoromethoxy)benzamide]	42.3	26
COCc1cc(C(N)=O)ccc1-c1nc(-c2cccc3nn(-c4cn(C5CC5)nc4OC)cc23)c(C2CC2)n1C [Example 12, 4-{5-cyclopropyl-4-[2-(1-cyclopropyl-3-methoxy-1H-pyrazol-4-yl)-2H-indazol-4-yl]-1-methyl-1H-imidazol-2-yl}-3-(methoxymethyl)benzamide]	9.6	25
CC[P@@](C)(=O)c1ccc(-c2nc(-c3cccc4nn(-c5cn(C6CC6)nc5OC)cc34)c(C3CC3)n2C)c(OC(F)(F)F)c1 [Example 13, 4-(5-cyclopropyl-2-{4-[(R)-ethyl(methyl)phosphoryl]-2-(trifluoromethoxy)phenyl}-1-methyl-1H-imidazol-4-yl)-2-(1-cyclopropyl-3-methoxy-1H-pyrazol-4-yl)-2H-indazole]	18.9	27
CC[P@](C)(=O)c1ccc(-c2nc(-c3cccc4nn(-c5cn(C6CC6)nc5OC)cc34)c(C3CC3)n2C)c(OC(F)(F)F)c1 [Example 14, 4-(5-cyclopropyl-2-{4-[(S)-ethyl(methyl)phosphoryl]-2-(trifluoromethoxy)phenyl}-1-methyl-1H-imidazol-4-yl)-2-(1-cyclopropyl-3-methoxy-1H-pyrazol-4-yl)-2H-indazole]	6.49	30
COc1nn(C2CC2)cc1-n1cc2c(-c3nc(-c4ccc(C(=O)N(C)C)cc4OC(F)(F)F)n(C)c3C3CC3)cccc2n1 [Example 15, 4-{5-cyclopropyl-4-[2-(1-cyclopropyl-3-methoxy-1H-pyrazol-4-yl)-2H-indazol-4-yl]-1-methyl-1H-imidazol-2-yl}-N,N-dimethyl-3-(trifluoromethoxy)benzamide]	32.9	25
COc1nn(C2CC2)cc1-n1cc2c(-c3nc(-c4ccc(C(N)=O)cc4OC(F)(F)F)n(C)c3C3CC3)cccc2n1 [Example 16, 4-{5-cyclopropyl-4-[2-(1-cyclopropyl-3-methoxy-1H-pyrazol-4-yl)-2H-indazol-4-yl]-1-methyl-1H-imidazol-2-yl}-3-(trifluoromethoxy)benzamide]	13.8	32
